Counter-ions that a name gives are not always drawn.
How the values were obtained:
[1] = target: acyl-CoA:cholesterol acyltransferase (ACAT); experiment: in vitro ACAT inhibition (LAI): radiolabeled cholesterol oleate formed from radiolabeled oleic acid in rat liver microsomes; assay type: biochemical; conditions: concentration required to inhibit enzyme activity by 50%
Method: The ability of representative compounds of the present invention to inhibit ACAT was measured using an in vitro test more fully described in Field FJ, Salone RG, Biochemica et Biophysica, 1982;712:557-570. The test assesses the ability of a test compound to inhibit the acylation of cholesterol by oleic acid by measuring the amount of radiolabeled cholesterol oleate formed from radiolabeled oleic acid in a tissue preparation containing rat liver microsomes.

[2] = in vivo screen APCC: blood cholesterol in rats fed overnight a high fat, high cholesterol (PCC) diet; conditions: male Sprague-Dawley rats, dosed at 4 PM, PCC diet with 0.5% cholic acid overnight, blood sampled 8 AM, dose not given
From the text: In one in vivo screen designated APCC, male Sprague-Dawley rats (200 to 225 g) were randomly divided into treatment groups and dosed at 4 PM with either vehicle (CMC/Tween) or suspensions of compounds in vehicle. The normal chow diet was then replaced with a high fat, high cholesterol diet (designated PCC) containing 0.5% cholic acid. The rats consumed this diet ad libitum during the night and were sacrificed at 8 AM to obtain blood samples for cholesterol analysis using standard procedures. Statistical differences between mean cholesterol values for the same vehicle were determined using analysis of variance followed by Fisher's least significant test.

SMILES	IC50 [1] [µM]	% Change (mg/dl) in cholesterol [2]	% Change (mg/dl) in cholesterol ([2]; sodium salt) [%]	IC50 ([1]; sodium salt) [µM]
CC(C)c1cc(C(C)C)c(OCC(=O)NS(=O)(=O)Oc2c(C(C)C)cccc2C(C)C)c(C(C)C)c1 [Example 46, sulfamic acid[[2,4,6-tris(1-methylethyl)phenoxy]acetyl]-2,6-bis(1-methylethyl)phenyl ester]	34	-57%		
CC(C)c1cccc(C(C)C)c1OS(=O)(=O)NC(=O)C(c1ccccc1)C1CCCCC1 (centres unmarked) [Example 33, sulfamic acid(cyclohexylphenylacetyl)-2,6-bis(1-methylethyl)phenyl ester]	9.3	-63%		
CC(=O)OC(C(=O)NS(=O)(=O)Oc1c(C(C)C)cccc1C(C)C)c1c(C(C)C)cc(C(C)C)cc1C(C)C (centres unmarked) [Example 42, sulfamic acid[(acetyloxy)[2,4,6-tris(1-methylethyl)phenyl]acetyl]-2,6-bis(1-methylethyl)phenyl ester]	7	-25%		
CC(C)c1cccc(C(C)C)c1OS(=O)(=O)NC(=O)C(c1ccccc1)C1CCCC1 (centres unmarked) [Example 25, sulfamic acid(cyclopentylphenylacetyl)-2,6-bis(1-methylethyl)phenyl ester]	7.2	-71%		
CC(C)c1cccc(C(C)C)c1OS(=O)(=O)NC(=O)C(c1ccccc1)(c1ccccc1)c1ccccc1 [Example 28, sulfamic acid(triphenylacetyl)-2,6-bis(1-methylethyl)phenyl ester]	6	-30%		
CC(C)c1cc(C(C)C)c(C(O)C(=O)NS(=O)(=O)Oc2c(C(C)C)cccc2C(C)C)c(C(C)C)c1 (centres unmarked) [Example 43, sulfamic acid[hydroxy[2,4,6-tris(1-methylethyl)phenyl]acetyl]-2,6-bis(1-methylethyl)phenyl ester]	31	-45%		
CC(C)c1cc(C(C)C)c(CC(=O)NS(=O)(=O)Oc2c(-c3ccccc3)cccc2-c2ccccc2)c(C(C)C)c1 [Example 48, sulfamic acid[[2,4,6-tris(1-methylethyl)phenyl]acetyl]-2,6-bis(phenyl)phenyl ester]	8.3	-73%		
CC(C)c1cccc(C(C)C)c1OS(=O)(=O)NC(=O)CCc1ccccc1 [Example 38, sulfamic acid(1-oxo-3-phenylpropyl)-2,6-bis(1-methylethyl)phenyl ester]	31	-16%		
CC(C)c1cccc(C(C)C)c1OS(=O)(=O)NC(=O)C1c2ccccc2Oc2ccccc21 [Example 36, sulfamic acid[(9H-xanthen-9-yl)carbonyl]-2,6-bis(1-methylethyl)phenyl ester]	22	-6%		
CC(C)c1cccc(C(C)C)c1OS(=O)(=O)NC(=O)Cc1cccs1 [Example 19, sulfamic acid[2-thiophenyl(acetyl)]-2,6-bis(1-methylethyl)phenyl ester]	> 50	-20%		
CC(C)c1cc(C(C)C)c(OS(=O)(=O)NC(=O)Cc2c(C(C)C)cccc2C(C)C)c(C(C)C)c1 [Example 3, sulfamic acid[[2,6-bis(1-methylethyl)phenyl]acetyl]-2,4,6-tris(1-methylethyl)phenylester]	11	-79%		
CC(C)c1cc(C(C)C)c(CC(=O)NS(=O)(=O)Oc2c(C(C)C)cccc2C(C)C)c(C(C)C)c1 [Example 6, sulfamic acid[[2,4,6-tris(1-methylethyl)phenyl]acetyl]-2,6-bis(1-methylethyl)phenylester sodium salt]			-75	
CC(C)c1cccc(C(C)C)c1OS(=O)(=O)NC(=O)Cc1ccccc1 [Example 7, sulfamic acid(phenylacetyl)-2,6-bis(1-methylethyl)phenyl ester]	47	-17%		
CC(C)c1cc(C(C)C)c(CC(=O)NS(=O)(=O)Oc2c(C(C)C)cccc2C(C)C)c(C(C)C)c1 [Example 5, Sulfamic acid[[2,4,6-tris(1-methylethyl)phenyl]acetyl]-2,6-bis(1-methylethyl)phenylester]	12	-73%		
CC(C)c1cccc(C(C)C)c1OS(=O)(=O)NC(=O)CC(c1ccccc1)c1ccccc1 [Example 13, sulfamic acid(1-oxo-3,3-diphenylpropyl)-2,6-bis(1-methylethyl)phenyl ester]	25	-31%		
CCCCCCCCCCCC(=O)NS(=O)(=O)Oc1c(C(C)C)cccc1C(C)C [Example 11, sulfamic acid(dodecanoyl)-2,6-bis(1-methylethyl)phenyl ester]	> 10	-8%		
CCCCCCCCCC(=O)NS(=O)(=O)Oc1c(C(C)C)cccc1C(C)C [Example 10, sulfamic acid (decanoyl)-2,6-bis(1-methylethyl)phenyl ester]		-26%		
CC(C)c1cccc(C(C)C)c1OS(=O)(=O)NC(=O)C(c1ccccc1)c1ccccc1 [Example 27, sulfamic acid(diphenylacetyl)-2,6-bis(1-methylethyl)phenyl ester]	12	-72%		
CC(C)c1cccc(C(C)C)c1OS(=O)(=O)NC(=O)Cc1c(Cl)cccc1Cl [Example 14, sulfamic acid[2,6-dichlorophenyl(acetyl)]-2,6-bis(1-methylethyl)phenyl ester]	33	-12%		
CCC(C)C(C(=O)NS(=O)(=O)Oc1c(C(C)C)cccc1C(C)C)c1ccccc1 (centres unmarked) [Example 45, sulfamic acid(3-methyl-1-oxo-2-phenylpentyl)-2,6-bis(1-methylethyl)phenyl ester sodium salt]			-63	5.6
COc1cc(OC)c(CC(=O)NS(=O)(=O)Oc2c(C(C)C)cccc2C(C)C)c(OC)c1 [Example 17, sulfamic acid[2,4,6-trimethoxyphenyl(acetyl)]-2,6-bis(1-methylethyl)phenyl ester]	> 50	-40%		
CC(C)c1cccc(C(C)C)c1OS(=O)(=O)NC(=O)CC1CCCCC1 [Example 26, sulfamic acid(cyclohexylacetyl)-2,6-bis(1-methylethyl)phenyl ester]	28	-26%		
CC(C)c1cccc(C(C)C)c1OS(=O)(=O)NC(=O)C(C)(c1ccccc1)c1ccccc1 [Example 34, sulfamic acid(1-oxo-2,2-diphenylpropyl)-2,6-bis(1-methylethyl)phenyl ester]	7.7	-67%		
CC(C)c1cccc(C(C)C)c1OS(=O)(=O)NC(=O)C(Br)c1ccccc1 (centres unmarked) [Example 39, sulfamic acid[bromo(phenyl)acetyl]-2,6l-bis(1-methylethyl)phenyl ester]	32	+5%		
CC(C)c1cccc(C(C)C)c1OCC(=O)NS(=O)(=O)Oc1c(C(C)C)cccc1C(C)C [Example 47, sulfamic acid[[2,6-bis(1-methylethyl)phenoxy]acetyl]-2,6-bis(1-methylethyl)phenyl ester]	38	-46%		
CC(C)c1cccc(C(C)C)c1OS(=O)(=O)NC(=O)C(c1ccc(Cl)cc1)c1ccc(Cl)cc1 [Example 35, sulfamic acid[bis-(4-chlorophenyl)acetyl]-2,6-bis(1-methylethyl)phenyl ester]	8.9	-9%		
CC(C)c1cccc(C(C)C)c1OS(=O)(=O)NC(=O)[C@@H]1C[C@H]1c1ccccc1 (relative stereo) [Example 15, sulfamic acid trans-[(2-phenylcyclopropyl)carbonyl]-2,6-bis(1-methylethyl)phenyl ester]		-14%		
CC(C)c1cccc(C(C)C)c1CC(=O)NS(=O)(=O)Oc1c(C(C)C)cccc1C(C)C [Example 2, sulfamic acid[[2,6-bis(1-methylethyl)phenyl]acetyl]-2,6-bis(1-methylethyl)phenyl ester sodium salt]			-62	12
Cc1cc(C)c(CC(=O)NS(=O)(=O)Oc2c(C(C)C)cccc2C(C)C)c(C)c1 [Example 18, sulfamic acid[2,4,6-trimethylphenyl(acetyl)]-2,6-bis(1-methylethyl)phenyl ester]	22	-47%		
CC(C)c1cccc(C(C)C)c1OS(=O)(=O)NC(=O)C12CC3CC(CC(C3)C1)C2 [Example 12]		-5%		

Reference: patent publication US5491172A, “N-acyl sulfamic acid esters (or thioesters), N-acyl sulfonamides, and N-sulfonyl carbamic acid esters (or thioesters) as hypercholesterolemic agents” (Warner-Lambert Company, priority 1994, dated 1996)
